Test [1] in a line: Cell proliferation assay (ATPlite) in a panel of NF1 related cell lines. It is filed as cell-based, human and mouse. Particulars: 72 h; read-out: IC50 (concentration required for inhibition of cell proliferation by 50%). The protocol:
Several physiologically relevant cells or cell lines were employed to measure compound potency in cell proliferation assays. These cells include: (1) NF1-deficient human malignant peripheral nerve sheath tumor (MPNST) cells, (2) Nf1^−/− mouse embryonic Schwann cells, and (3) Nf1- and p53-deficient mouse cell. […] All the other cells are grown in DMEM with 10% fetal bovine serum (FBS).
Various concentrations of each compound/agent to be tested were added to the growing media and the cells were then cultured for 3 days. […] Viable cells were measured by detecting luminescence generated from reaction of ATPlite solution and the ATP in the cells.

Test [2] has as its system Fresh human dermal neurofibroma. Kind of test: Ex vivo tumor explant assay, histological score. It is filed as cell-based. Particulars: compound added day 1, collected day 3, criterion “+” or more. The protocol: The efficacy of the compound/agent was tested in an ex vivo tumor explant model as follows. Fresh human dermal neurofibroma was cut into eight small pieces and cultured on standard cell culture plates with medium containing DMEM/F12, 10% FBS, heregulin and forskolin. The pieces were divided into treatment and control groups. Compound at different doses was added to the medium on day 1. No compound was added in the negative control group. All tumor pieces were collected on day 3 and processed for histology by formalin fixation and paraffin embedding. Tissue sections were cut and stained with hematoxylin-eosin for histological analysis. The histological analysis of the paired explant samples was conducted blindly. Three histological parameters were used to score the samples from “−” to “+++”: 1) overall tissue integrity; we evaluate tissue integrity by comparing the cellularity of treated samples to the negative control samples. The low cellularity area was defined as >30% less nucleus than the similar area on the control sample. The photograph of each sample at 40× under a bright field microscopy was take using MagnaFire digital camera (Optronics, USA) and stored in computer. The low cellularity areas in the pictures were measured using Photoshop and calculated as Length×Width, and then expressed as a percentage over the total area of the sample. Overall tissue integrity was scored using 0 to 2+ score. In short, good tissue integrity is scored 0 (<5%), 1+ indicates medium tissue integrity (5-25%), 2+ low tissue integrity (>25%). Only 2+ cases were regarded as positive “+” for the final total score; 2) cell death—slides were evaluated by bright field microscopy. At least 100 cells per view were counted. Cell death was scored semi-quantitatively using the 0 to 3+ score. The absence of condensed or fragmented nucleus is scored 0, 1+ indicates the lowest level of detectable cell death (<10%), 2+ moderate cell death ([…]), and 3+ high cell death (>30%). All 2+ and 3+ cases were regarded as positive “+” for the final total score; and 3) effect on vasculatures.—slides were evaluated by bright field microscopy. The effect on vasculature in treated samples was determined by comparing with the vasculatures in control negative samples. At least 20 vasculatures per sample were counted. Effect on vasculatures was scored semi-quantitatively using the […]. In short, absence or the lowest level of damaged vasculature is scored 0 (<5%), 1+ indicates of some damaged vasculature (5-25%), 2+ high (>25%). All 1+ and 2+ cases were regarded as positive “+” for the final total score. Final histological score was the sum of the scores of the above three parameters, expressed as “−” to “+++”. Any compound with a histological score of “+” or more will be potential good candidates for local treatment of neurofibromas.

A further test concerns cutaneous neurofibromas. Nature of the test: Proof-of-concept intralesional administration study in NF1 subjects. The test is classed as in vivo, human. Particulars: intralesional injection once weekly for 4 weeks, all controls showed no change. The text has this:
The study was a proof-of-concept, prospective, safety and efficacy study of the effect of intralesionally administered drugs given once a week to 3 target cutaneous neurofibromas for 4 consecutive weeks. Six subjects were enrolled. […] All subjects were from 18 to 65 years of age, inclusive. All subjects otherwise were in good health, or had stable concomitant medical conditions appropriately managed by a primary care physician. […] After screening and enrollment, all subjects received a defined volume (based on the size of the lesion) of intralesional drug once weekly into 3 target cutaneous neurofibromas that are 0.5 to 1.5 cm in diameter, inclusive, in its largest dimension. Each target cutaneous neurofibroma was different in size, with one 0.5 to 0.8 cm in diameter, a second between 0.81 to 1.2 cm in diameter, and a third 1.21 to 1.5 cm in diameter. Concomitantly, three control cutaneous neurofibromas found on the torso and/or appendages of the same range in sizes received sterile normal saline. All lesions prior to injection were locally anesthetized with lidocaine 1% and epinephrine 1:100,000. […] Assessment included the exact measured dimensions (in two axes) of the […] assessed lesions. […]

In the case of `O=c1[nH]cc(F)c(=O)[nH]1` [5-fluorouracil], the IC50 in test [1] was not above 10 µM. In addition, the “Final histological score (tissue integrity, cell death, effect on vasculatures)” value (shortened to “Final histological score”) in test [2] is “+”.
The like results for `S=P(N1CC1)(N1CC1)N1CC1` [Thiotepa] were, in that order, not above 10 µM and “+”.
Consider `COc1cc([C@@H]2c3cc4c(cc3[C@H](O)[C@H]3COC(=O)[C@H]23)OCO4)cc(OC)c1OC` [Podophyllotoxin], for which the IC50 in test [1] is not above 10 µM. The “Final histological score” value in test [2] is reported as “+”.
As for `O=c1cc(N2CCOCC2)oc2c(-c3ccccc3)cccc12` [LY294002, 2-(4-Morpholinyl)-8-phenyl-4H-1-benzopyran-4-one], in test [1], the IC50 is not above 10 µM.
Take `O=C([O-])Cc1ccccc1Nc1c(Cl)cccc1Cl.[Na+]` [Diclofenac]: the “Final histological score” value in test [2] was “+”. For the same compound, the “tumors injected showing partial or complete elimination of the dermal neurofibroma” value with cutaneous neurofibromas is 48%.
For the compound `CC1=C(/C=C/C(C)=C/C=C/C(C)=C/C(=O)O)C(C)(C)CCC1` [retinoic acid, 3,7-dimethyl-9-(2,6,6-trimethyl-1-cyclohexenyl)-nona-2,4,6,8-tetraenoic acid], the IC50 in test [1] is not above 10 µM.
In the case of Bleomycin, in test [2], the “Final histological score” value was “+”.
With `COc1cc(/C=C/C(=O)CC(=O)/C=C/c2ccc(O)c(OC)c2)ccc1O` [curcumin, Curcumin], the IC50 in test [1] was not above 10 µM.
The same measure, in the same setting: as for `COc1cc2ncnc(N3CCN(C(=S)NCc4ccc5c(c4)OCO5)CC3)c2cc1OC` [KN2941, 4-(6.7-dimethoxy-4-quinazolinyl)-N-(3,4-methylenedioxybenzyl)-1-piperazinethiocarboxamide], the figure is not above 10 µM.
On the same count and under the same terms, as for `CO[C@H]1C[C@@H]2CC[C@@H](C)[C@@](O)(O2)C(=O)C(=O)N2CCCC[C@H]2C(=O)O[C@H]([C@H](C)C[C@@H]2CC[C@@H](O)[C@H](OC)C2)CC(=O)[C@H](C)/C=C(\C)[C@@H](O)[C@@H](OC)C(=O)[C@H](C)C[C@H](C)/C=C/C=C/C=C/1C` [rapamycin, Rapamycin], the figure is not above 10 µM; as for `CCN(CC)CCNC(=O)c1c(C)[nH]c(/C=C2\C(=O)Nc3ccc(Cl)cc32)c1C` [SU11652, 5-[(Z)-(5-Chloro-2-oxo-1,2-dihydro-3H-indol-3-ylidene)methyl]-N-[2-(diethylamino)ethyl]-2,4-dimethyl-1H-pyrrole-3-carboxamide], not above 10 µM.
For `C[C@H]1c2cccc(O)c2C(=O)C2=C(O)[C@]3(O)C(=O)C(C(N)=O)=C(O)[C@@H](N(C)C)[C@@H]3[C@@H](O)[C@@H]21.Cl` [Doxycycline], the IC50 in test [1] was not above 10 µM. For the same compound, the “tumors injected showing partial or complete elimination of the dermal neurofibroma” value in the test with cutaneous neurofibromas was 89%.
For the compound `CC1=C(/C=C/C(C)=C/C=C/C(C)=C/C(=O)Nc2ccc(O)cc2)C(C)(C)CCC1` [Fenretinide], the IC50 in test [1] is not above 10 µM. In addition, the “Final histological score” value in test [2] is recorded as “+”.
On to `CC[C@@]1(O)C(=O)OCc2c1cc1n(c2=O)Cc2cc3ccccc3nc2-1` [Camptothecin], for which the IC50 in test [1] is not above 10 µM.
For the compound `NC(=O)c1cn([C@@H]2O[C@H](CO)C(O)C2O)c2ncnc(N)c12` (stereo partly shown) [Sangivamycin], the IC50 in test [1] is not above 10 µM. Also, the “Final histological score” value in test [2] was “+”.
In the same order, the values of `Nc1ncnc2c1ccn2[C@@H]1O[C@H](CO)[C@@H](O)[C@H]1O` [Tubercidin] are not above 10 µM and “+”.
In the same order, the values of `CC(/C=C/C(=O)NO)=C\[C@@H](C)C(=O)c1ccc(N(C)C)cc1` [Tricostatin A] are not above 10 µM and “+”.
The like results for `C[C@@H]1C[C@H]2O[C@@H]2/C=C\C=C\C(=O)Cc2c(Cl)c(O)cc(O)c2C(=O)O1` [radicicol, Radicicol] were, in that order, not above 10 µM and “+”.
For the compound `O=C(O[C@@H]1Cc2c(O)cc(O)cc2O[C@@H]1c1cc(O)c(O)c(O)c1)c1cc(O)c(O)c(O)c1` [EGCG, (−)-Epigallocatechin Gallate], the IC50 in test [1] is not above 10 µM.
On to `CCCC(CCC)C(=O)O` [Valproic acid], for which, in test [2], the “Final histological score” value is on record as “+”.
For `Nc1nc(Cl)nc2c1ncn2[C@H]1C[C@H](O)[C@@H](CO)O1` [Cladribine], in test [1], the IC50 was not above 10 µM.
The same measure, in the same setting: as for `CCCCCCCCCCCCCCCCOP(=O)([O-])OCC[N+](C)(C)C` [miltefosine, Miltefosine], the figure is not above 10 µM; as for `N#CC(=C(/N)Sc1ccccc1N)/C(C#N)=C(\N)Sc1ccccc1N` [U0126, 1,4-Diamino-2,3-dicyano-1,4-bis(2-aminophenylthio)-butadiene], not above 10 µM.
As for `COC(=O)Nc1nc2cc(C(=O)c3ccccc3)ccc2[nH]1` [Mebendazole], in test [1], the IC50 is not above 10 µM. Further, the “Final histological score” value in test [2] is recorded as “+”.
In the same order, the values of `C=CCNC1=C2C[C@@H](C)C[C@H](OC)[C@H](O)[C@@H](C)/C=C(\C)[C@H](OC(N)=O)[C@@H](OC)/C=C\C=C(/C)C(=O)NC(=CC1=O)C2=O` [17-AAG, 17-(Allylamino)-17-demethoxygeldanamycin] are not above 10 µM and “+”.

For the origin of these results see patent US8211875B2, “Local treatment of neurofibromas” (Nexgenix Pharmaceuticals Inc, priority 2005, dated 2012).
